Source: PubChem BioAssay AID2060487 (Molecular Pharmacology Branch, DTP, NCI, 2025)

Tested on: 997537-175-T-J1-PDC complex spheroid viability
Test: Anticancer human tumor 997537-175-T-J1-PDC patient-derived colon adenocarcinoma cell line growth inhibition [GQUAD]
Settings: for IC50: curve of first compound; for viability, T/C: stronger effect = lower value
How it was run: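 Tumor cells were grown as complex spheroids with HUVEC endothelial cells and mesenchymal stem cells as stroma. G-quadruplex stabilizers were combined with targeted agents over half-log dilutions from near the clinical Cmax, or from 10 microM.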

[1] = second compound 0.0316 µM, first compound 0.0316 µM
[2] = second compound 0.0316 µM, first compound 0.1 µM
[3] = second compound 0.0316 µM, first compound 0.316 µM
[4] = second compound 0.0316 µM, first compound 1 µM
[5] = second compound 0.0316 µM, first compound 3.16 µM
[6] = second compound 0.0316 µM, first compound 10 µM
[7] = second compound 0.1 µM, first compound 0.0316 µM
[8] = second compound 0.1 µM, first compound 0.1 µM
[9] = second compound 0.1 µM, first compound 0.316 µM
[10] = second compound 0.1 µM, first compound 1 µM
[11] = second compound 0.1 µM, first compound 3.16 µM
[12] = second compound 0.1 µM, first compound 10 µM
[13] = second compound 0.316 µM, first compound 0.0316 µM
[14] = second compound 0.316 µM, first compound 0.1 µM
[15] = second compound 0.316 µM, first compound 0.316 µM
[16] = second compound 0.316 µM, first compound 1 µM
[17] = second compound 0.316 µM, first compound 3.16 µM
[18] = second compound 0.316 µM, first compound 10 µM
[19] = second compound 1 µM, first compound 0.0316 µM
[20] = second compound 1 µM, first compound 0.1 µM
[21] = second compound 1 µM, first compound 0.316 µM
[22] = second compound 1 µM, first compound 1 µM
[23] = second compound 1 µM, first compound 3.16 µM
[24] = second compound 1 µM, first compound 10 µM
[25] = second compound 3.16 µM, first compound 0.0316 µM
[26] = second compound 3.16 µM, first compound 0.1 µM
[27] = second compound 3.16 µM, first compound 0.316 µM
[28] = second compound 3.16 µM, first compound 1 µM
[29] = second compound 3.16 µM, first compound 3.16 µM
[30] = second compound 3.16 µM, first compound 10 µM
[31] = second compound 10 µM, first compound 0.0316 µM
[32] = second compound 10 µM, first compound 0.1 µM
[33] = second compound 10 µM, first compound 0.316 µM
[34] = second compound 10 µM, first compound 1 µM
[35] = second compound 10 µM, first compound 3.16 µM
[36] = second compound 10 µM, first compound 10 µM
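Further: spheroids exposed to the agents for 7 days.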
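Wherever viability, T/C is given: 100% = DMSO vehicle control viability.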

CC1COCCN1c1cc(C2(S(C)(=N)=O)CC2)nc(-c2ccnc3[nH]ccc23)n1 (stereo unspecified) + CN(C)c1ccc(Nc2c3ccc(NC(=O)CCN4CCCC4)cc3nc3cc(NC(=O)CCN4CCCC4)ccc23)cc1
IC50 (second compound 0.0316 µM): 8.42 µM
IC50 (second compound 0.1 µM): > 10 µM
IC50 (second compound 0.316 µM): > 10 µM
IC50 (second compound 1 µM): > 10 µM
IC50 (second compound 3.16 µM): > 10 µM
IC50 (second compound 10 µM): > 10 µM
viability, T/C [1]: 93.6%
viability, T/C [2]: 82.9%
viability, T/C [3]: 74.4%
viability, T/C [4]: 84.5%
viability, T/C [5]: 56%
viability, T/C [6]: 49%
viability, T/C [7]: 82.3%
viability, T/C [8]: 80%
viability, T/C [9]: 75.1%
viability, T/C [10]: 59.5%
viability, T/C [11]: 48.6%
viability, T/C [12]: 81.9%
viability, T/C [13]: 98.7%
viability, T/C [14]: 66.3%
viability, T/C [15]: 79.2%
viability, T/C [16]: 76%
viability, T/C [17]: 65%
viability, T/C [18]: 76%
viability, T/C [19]: 90%
viability, T/C [20]: 67.4%
viability, T/C [21]: 87.8%
viability, T/C [22]: 75.8%
viability, T/C [23]: 70.9%
viability, T/C [24]: 70.5%
viability, T/C [25]: 70.2%
viability, T/C [26]: 93%
viability, T/C [27]: 86.7%
viability, T/C [28]: 82.8%
viability, T/C [29]: 73.4%
viability, T/C [30]: 70.6%
viability, T/C [31]: 77%
viability, T/C [32]: 95.7%
viability, T/C [33]: 94.5%
viability, T/C [34]: 88.9%
viability, T/C [35]: 55.5%
viability, T/C [36]: 77%

CCCS(=O)(=O)Nc1ccc(F)c(C(=O)c2c[nH]c3ncc(-c4ccc(Cl)cc4)cc23)c1F + Cc1cnc(CNC(=O)c2c(=O)c3ccc(N4CCCN(C)CC4)nc3n3c2sc2ccccc23)cn1
IC50 (second compound 0.0316 µM): 1.9 µM
IC50 (second compound 0.1 µM): 1.76 µM
IC50 (second compound 0.316 µM): 0.778 µM
IC50 (second compound 1 µM): 0.739 µM
IC50 (second compound 3.16 µM): 1.89 µM
IC50 (second compound 10 µM): 1.46 µM
viability, T/C [1]: 77.7%
viability, T/C [2]: 50.8%
viability, T/C [3]: 67.3%
viability, T/C [4]: 44.8%
viability, T/C [5]: 56.2%
viability, T/C [6]: 22.2%
viability, T/C [7]: 73.8%
viability, T/C [8]: 64.7%
viability, T/C [9]: 76.1%
viability, T/C [10]: 40.8%
viability, T/C [11]: 53.1%
viability, T/C [12]: 21.6%
viability, T/C [13]: 93.5%
viability, T/C [14]: 56.2%
viability, T/C [15]: 60%
viability, T/C [16]: 45.7%
viability, T/C [17]: 55.2%
viability, T/C [18]: 21.8%
viability, T/C [19]: 84.3%
viability, T/C [20]: 62.7%
viability, T/C [21]: 48.4%
viability, T/C [22]: 56.3%
viability, T/C [23]: 48.2%
viability, T/C [24]: 27.7%
viability, T/C [25]: 82.7%
viability, T/C [26]: 58.6%
viability, T/C [27]: 62.2%
viability, T/C [28]: 64.7%
viability, T/C [29]: 42.8%
viability, T/C [30]: 26.1%
viability, T/C [31]: 83.6%
viability, T/C [32]: 74.2%
viability, T/C [33]: 68.8%
viability, T/C [34]: 44%
viability, T/C [35]: 51.5%
viability, T/C [36]: 26.9%

COc1ncnc(C2CC2)c1-c1ncc2cnn(Cc3ccc(-c4nc(C(F)(F)F)cn4C(C)C)cc3)c2n1 + CN(C)c1ccc(Nc2c3ccc(NC(=O)CCN4CCCC4)cc3nc3cc(NC(=O)CCN4CCCC4)ccc23)cc1
IC50 (second compound 0.0316 µM): > 10 µM
IC50 (second compound 0.1 µM): > 10 µM
IC50 (second compound 0.316 µM): > 10 µM
IC50 (second compound 1 µM): > 10 µM
IC50 (second compound 3.16 µM): > 10 µM
IC50 (second compound 10 µM): > 10 µM
viability, T/C [1]: 99%
viability, T/C [2]: 88.7%
viability, T/C [3]: 79.4%
viability, T/C [4]: 77.8%
viability, T/C [5]: 77.8%
viability, T/C [6]: 97.8%
viability, T/C [7]: 91.4%
viability, T/C [8]: 80.4%
viability, T/C [9]: 82.2%
viability, T/C [10]: 62.4%
viability, T/C [11]: 81.4%
viability, T/C [12]: 76.7%
viability, T/C [13]: 73%
viability, T/C [14]: 85.5%
viability, T/C [15]: 86.5%
viability, T/C [16]: 81.1%
viability, T/C [17]: 87.5%
viability, T/C [18]: 82.1%
viability, T/C [19]: 69.2%
viability, T/C [20]: 88.2%
viability, T/C [21]: 81.5%
viability, T/C [22]: 79%
viability, T/C [23]: 85.7%
viability, T/C [24]: 82.1%
viability, T/C [25]: 74.5%
viability, T/C [26]: 87.6%
viability, T/C [27]: 86.6%
viability, T/C [28]: 84.3%
viability, T/C [29]: 86.4%
viability, T/C [30]: 91.8%
viability, T/C [31]: 75.5%
viability, T/C [32]: 81.7%
viability, T/C [33]: 86.8%
viability, T/C [34]: 77.2%
viability, T/C [35]: 89%
viability, T/C [36]: 84.7%
